Legend:
in vitro = in vitro ADME, hog; settings: pig, pH 7.2; tris buffer plus hog liver esterase, 30° C.
Procedure: (§1) PREPARATION OF TRIS BUFFER
(§2) 0.05 M tris buffer was made by dissolving 6.05 grams of tris-(hydroxymethyl)-methylamine in 1000 ml. of water, and adjusting the pH to 7.2 by the addition of 0.1 M HCl.
(§3) Standard solutions of 1×10^-4 M Compound A in analytical grade methanol (0.01 ml) were prepared, and tested in the simulated gastric and intestinal fluids, in tris buffer alone, in tris buffer with added hog liver esterase and also in serum. The solutions under test were incorporated in 1 ml. of each of the test fluids. A temperature of 30° C. was used for the assays involving the hog liver esterase, whereas a temperature of 37° C. was used for the assays involving the simulated gastric and intestinal fluids and the serum. After this, the mixture was allowed to stand and the supernatant liquid was spotted onto silica t.l.c. plates and developed in 90:10 chloroform/methanol. The mixture was then extracted with 5 mls of chloroform and the chloroform-containing mixture was filtered through phase-separating papers, which allow only the chloroform solution to pass through. The chloroform solution was also spotted onto silica t.l.c. plates and developed in 90:10 chloroform/methanol.

hog liver esterase = experiment: in vitro; format: in vitro ADME; settings: 30° C.
Procedure: as §1, §2, §3

[1] = Serum "free NAPA" in beagle dogs; format: in vivo; settings: oral
Procedure: (§4) (B)--Investigation of Serum Concentrations in Beagle Dogs
(§5) 6 Beagle dogs (3 males and 3 females) were dosed once a day (at 08.00 hrs. each day) for 23 days with Compound A, suspended in 1% gum tragacanth, which was administered orally by oesophageal tube, at a rate of either 432 mg/kg (2 dogs, 1 male and 1 female) or 675 mg/kg (4 dogs, 2 male and 2 female). During this period the dogs received their usual food and water until 16.00 hrs. on the day before the test; but from that time until 08.00 hrs. on the day of the test they were given no food, although they received their usual drinking water. The usual dosage of Compound A was however given to the animal at 08.00 hrs. on the day of the test.
(§6) Without any further feeding, serum samples were then taken from each animal 2, 4 and 6 hours after the oral administration of Compound A, thus at 10.00 hrs., 12.00 hrs. and 14.00 hrs. on the day of the test. After the 6-hour serum sample had been taken, the animals received their usual food for a while; but they were again made to fast for 12 hours from 20.00 hrs. on the day of the test until 08.00 hrs. on the following day, when the last, 24-hour serum sample was taken.
A direct determination similar to that used in Determination 2 above gave results for "free NAPA" as set out in Table IV below: […]

[2] = Hydrolysis stability in human serum; format: in vitro ADME; settings: 37° C.; for half-life: human serum from two volunteers
Procedure: The serum used in the assays was prepared by taking whole blood into plain tubes, incubating for one hour at 37° C., and then centrifuging at 2000 RPM for 10 minutes.
as §3

[3] = Hydrolysis stability in simulated intestinal fluid; format: physicochemical
Procedure: (§7) In order first to evaluate the stability of Compound A in the gastro-intestinal tract, simulated gastric and intestinal fluids and other test fluids were prepared as follows:
PREPARATION OF SIMULATED INTESTINAL FLUID
6.1 grams of monobasic potassium phosphate and 3.9 grams of disodium hydrogen phosphate were dissolved in 1000 ml. of water. The pH of the resulting solution was 6.85.
as §3

[4] = Hydrolysis stability in simulated gastric fluid; format: physicochemical
Procedure: as §7
PREPARATION OF SIMULATED GASTRIC FLUID
0.35 gram of sodium chloride, 0.5 gram of glycine and 94 ml of M hydrochloric acid were mixed, and the volume was then made up to 1000 ml with distilled water. The pH of this system was about 1.79.
as §3

[5] = Serum "total NAPA" in beagle dogs; format: in vivo; settings: oral, last dose after 23 days
Procedure: as §4, §5
as §6, with “taken. […]” for “taken.”

in vivo = settings: mouse, po
Procedure: (A)--Investigation of Serum Concentrations in Mice
36 Charles River COBS mice (18 males and 18 females) weighing 30 g each were deprived of food for 16 hours before the trial but were given their usual drinking water. Three groups, each containing 6 males and 6 females, received a dosage of 1 ml/100 g body weight per mouse, orally by stomach tube, of a suspension in 1% gum tragacanth of respectively:
Group X: 500 mg/kg of N-acetyl-para-aminophenol
A blood sample was taken by throat-slitting from one male and one female from each Group at each study time, i.e. 1/2, 1, 2, 4 and 24 hours after the oral administration.
At times 1/2, 1, 2 and 4 hours, each serum sample was divided into three 0.1 ml trial samples for the following three determinations:
This determination was carried out by direct extraction, with no prior hydrolysis, according to an adaptation of the above-mentioned method.

Row | Compound | half-life (in vitro) | effect of hog liver esterase on the rate of hydrolysis (hog liver esterase) | hydrolysis in vivo ([1]; 23 days) | recovery of "free NAPA" in serum, time ([1]; last dose after 23 days) | effect of human serum on the rate of hydrolysis [2] | half-life [2] | half-life ([2]; human, serum, read-out: half-life) | half-life ([3]; simulated intestinal fluid, pH 6.85, 37° C.) | rate of hydrolysis ([3]; simulated intestinal juice, 37° C.) | half-life ([4]; pH 1.79, simulated gastric fluid, pH about 1.79, 37° C.) | rate of hydrolysis ([4]; simulated gastric juice, 37° C.) | recovery of "total NAPA" in serum, time [5] | concentration at 2 h (in vivo; 500 mg/kg, Serum "free NAPA") | concentration at 4 h (in vivo; 500 mg/kg, Serum "free NAPA") | concentration at 4 h (in vivo; 1073 mg/kg)
1 | CSCCC(NC(C)=O)C(=O)Oc1ccc(NC(C)=O)cc1 (racemic) [Compound A, N-acetyl-para-aminophenyl N'-acetyl-D,L-methionate] | ~7.92 h | no effect on the rate of hydrolysis | easily hydrolyzed | up to 6 hours | increased the rate of hydrolysis | 2.5 h | 2.33 h | 31.5 h | very slow | 40 h | very slow | up to 24 hours | – | – | –
2 | CC(=O)Nc1ccc(O)cc1 [NAPA, N-acetyl-para-aminophenol] | – | – | – | – | – | – | – | – | – | – | – | – | 97000 ng/mL | 32000 ng/mL | 32000 ng/mL
